Patent US20110269811A1, “INHIBITORS OF SEMICARBAZIDE-SENSITIVE AMINE OXIDASE (SSAO) AND VAP-1 MEDIATED ADHESION USEFUL FOR TREATMENT AND PREVENTION OF DISEASES” (priority 2006, published 2011)

How the values were obtained:
human MAO-B = target: T1, human MAO-B (Homo sapiens, UniProt P27338); assay: MAO-B activity, colorimetric method, benzylamine substrate; type: biochemical; conditions: for Specificity of SSAO on MAO-B: ratio of IC50 for MAO-B to IC50 for SSAO; for IC50: recombinant human MAO-B
T1 construct: purchased BD Biosciences (MA, USA)
T1 sequence (P27338 1-520): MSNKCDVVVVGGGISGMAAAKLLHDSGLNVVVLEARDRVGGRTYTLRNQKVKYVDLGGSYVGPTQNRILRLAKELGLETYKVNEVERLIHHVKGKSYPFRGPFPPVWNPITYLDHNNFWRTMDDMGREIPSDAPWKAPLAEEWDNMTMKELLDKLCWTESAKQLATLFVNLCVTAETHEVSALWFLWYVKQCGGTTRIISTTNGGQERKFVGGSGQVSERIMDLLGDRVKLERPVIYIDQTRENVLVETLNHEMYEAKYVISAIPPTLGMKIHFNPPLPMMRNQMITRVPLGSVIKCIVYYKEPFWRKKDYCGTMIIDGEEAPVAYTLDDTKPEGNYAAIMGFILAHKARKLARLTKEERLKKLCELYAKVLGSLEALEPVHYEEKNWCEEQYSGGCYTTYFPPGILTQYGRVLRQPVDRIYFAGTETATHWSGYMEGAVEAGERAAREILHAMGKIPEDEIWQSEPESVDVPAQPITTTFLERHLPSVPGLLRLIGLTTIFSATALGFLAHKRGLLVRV
Description: The specificities of the different SSAO inhibitors was tested by determining their abilities to inhibit MAO-A and MAO-B activities in vitro. Recombinant human MAO-A and human MAO-B enzymes were obtained from BD Biosciences (MA, USA). MAO activity was measured using the colorimetric method essentially as described (Holt, A. et al. (1997) Anal. Biochem. 244: 384). A pre-determined amount of inhibitor diluted in 0.2M potassium phosphate buffer, pH 7.6, was added to each well, if required. […] Controls lacked inhibitor. The following agents were then added to a final reaction volume of 200 μL in 0.2M potassium phosphate buffer, pH 7.6: 0.04 mg/ml of MAO-A or 0.07 mg/ml MAO-B enzyme, 15 μL of 10 mM tyramine substrate (for MAO-A), or 15 μL 100 mM benzylamine substrate (for MAO-B), and 50 μL of freshly made chromogenic solution. The chromogenic solution contained 750 μM vanillic acid (Sigma#V-2250), 400 μM 4-aminoantipyrine (Sigma #A-4328) and 12 U/mL horseradish peroxidase (Sigma #P-8250) in order to cause a change of 0.5 OD A490 nm/h. […] The plates were incubated for 60 min at 37° C. The increase in absorbance, reflecting MAO activity, was measured at 490 nm using microplate spectrophotometer (Power Wave 40, Bio-Tek Inst.). Inhibition was presented as percent inhibition compared to control after correcting for background absorbance and IC50 values calculated using GraphPad Prism software. Clorgyline and pargyline (inhibitors of MAO-A and -B, respectively) at 1 μM, were added to some wells as positive controls for MAO inhibition.

Recombinant human MAO-A = target: T2, Recombinant human MAO-A (Homo sapiens, UniProt P21397); assay: MAO-A activity, colorimetric method, tyramine substrate; type: biochemical; conditions: for Specificity of SSAO on MAO-A: ratio of IC50 for MAO-A to IC50 for SSAO; for IC50: recombinant human MAO-A
T2 construct: purchased BD Biosciences (MA, USA)
T2 sequence (P21397 1-527): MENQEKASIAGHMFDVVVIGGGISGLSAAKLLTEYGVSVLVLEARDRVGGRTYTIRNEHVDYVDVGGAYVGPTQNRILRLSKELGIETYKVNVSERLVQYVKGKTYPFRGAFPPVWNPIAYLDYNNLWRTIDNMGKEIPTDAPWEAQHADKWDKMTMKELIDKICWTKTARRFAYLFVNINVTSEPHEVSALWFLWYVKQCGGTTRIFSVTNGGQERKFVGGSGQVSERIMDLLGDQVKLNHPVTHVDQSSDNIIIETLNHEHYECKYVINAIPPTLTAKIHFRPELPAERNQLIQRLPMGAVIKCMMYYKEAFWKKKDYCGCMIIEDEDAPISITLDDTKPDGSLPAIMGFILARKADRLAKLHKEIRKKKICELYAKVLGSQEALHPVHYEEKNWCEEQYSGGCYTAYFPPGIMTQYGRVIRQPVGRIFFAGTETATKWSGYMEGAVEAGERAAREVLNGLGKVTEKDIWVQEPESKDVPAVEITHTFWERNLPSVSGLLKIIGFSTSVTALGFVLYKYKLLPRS
Description: The specificities of the different SSAO inhibitors was tested by determining their abilities to inhibit MAO-A and MAO-B activities in vitro. Recombinant human MAO-A and human MAO-B enzymes were obtained from BD Biosciences (MA, USA). MAO activity was measured using the colorimetric method essentially as described (Holt, A. et al. (1997) Anal. Biochem. 244: 384). A pre-determined amount of inhibitor diluted in 0.2M potassium phosphate buffer, pH 7.6, was added to each well, if required. The amount of inhibitor varied in each assay but was generally at a final concentration of between 1 nM and 1 mM. Controls lacked inhibitor. The following agents were then added to a final reaction volume of 200 μL in 0.2M potassium phosphate buffer, pH 7.6: 0.04 mg/ml of MAO-A or 0.07 mg/ml MAO-B enzyme, 15 μL of 10 mM tyramine substrate (for MAO-A), or 15 μL 100 mM benzylamine substrate (for MAO-B), and 50 μL of freshly made chromogenic solution. The chromogenic solution contained 750 μM vanillic acid (Sigma#V-2250), 400 μM 4-aminoantipyrine (Sigma #A-4328) and 12 U/mL horseradish peroxidase (Sigma #P-8250) in order to cause a change of 0.5 OD A490 nm/h. This was within the linear response range for the assay. The plates were incubated for 60 min at 37° C. The increase in absorbance, reflecting MAO activity, was measured at 490 nm using microplate spectrophotometer (Power Wave 40, Bio-Tek Inst.). Inhibition was presented as percent inhibition compared to control after correcting for background absorbance and IC50 values calculated using GraphPad Prism software. Clorgyline and pargyline (inhibitors of MAO-A and -B, respectively) at 1 μM, were added to some wells as positive controls for MAO inhibition. […] The compounds described in the present invention are therefore expected to have therapeutic utility in the treatment of diseases and conditions in which the activity of SSAO/VAP-1 plays a role, that is, in SSAO/VAP-1 mediated diseases and conditions.

Row | melting point [°C] | Specificity of SSAO on MAO-B (human MAO-B) | IC50 (human MAO-B) [µM] | Specificity of SSAO on MAO-A (Recombinant human MAO-A) | IC50 (Recombinant human MAO-A) [µM] | SMILES
1 | 104 to 106 | 8.6 | 1.2 | 143 | 20 | CCOc1ccc(CC/C(=C\Cl)CN)cc1.Cl [Compound I-45-Z, (E)-3-Chloro-2-(4-ethoxyphenylethyl)allylamine hydrochloride]
2 | 94 to 95 | 19 | 0.56 | 21 | 0.62 | COc1ccc(CC/C(=C/F)CN)cc1.Cl [Compound I-102-Z, (Z)-3-Fluoro-2-[2-(4-methoxyphenyl)-ethyl]-allylamine hydrochloride]
3 | 213 to 214 | >3333 | > 1000 | >3333 | > 1000 | Cl.NC/C(F)=C\Cc1ccc(F)cc1 [II-5-E, (E)-2-Fluoro-4-(4-fluorophenyl)-2-butenylamine hydrochloride]
4 | 195 to 196 | 7692 | – | 7692 | – | Cc1cccc(C/C=C(/F)CN)c1.Cl [II-6-E, (E)-2-Fluoro-4-(3-methylphenyl)-2-butenylamine hydrochloride]
5 | 175 to 176 | 4545 | – | 4545 | – | Cl.NC/C(F)=C\Cc1cccc(F)c1 [II-7-E, (E)-2-Fluoro-4-(3-fluorophenyl)-2-butenylamine hydrochloride]
6 | 175 to 176 | 50000 | 1100 | 50000 | 1100 | COc1cccc(C/C=C(/F)CN)c1.Cl [II-8-E, (E)-2-Fluoro-4-(3-methoxyphenyl)-2-butenylamine hydrochloride]
7 | 120 to 121 | 12120 | 1200 | 12120 | 1200 | Cl.NC/C(F)=C\Cc1ccccc1 [II-9-E, (E)-2-Fluoro-4-phenyl-2-butenylamine hydrochloride]
8 | 174 to 175 | 53670 | 966 | 48330 | 870 | Cl.NC/C(F)=C\Cc1cccc(OC(F)(F)F)c1 [II-10-E, (E)-2-Fluoro-4-(3-trifluoromethoxyphenyl)-2-butenylamine hydrochloride]
9 | 192 to 193 | 100000 | – | 100000 | – | CSc1cccc(C/C=C(/F)CN)c1.Cl [II-13-E, (E)-2-Fluoro-4-(3-methylthiophenyl)-2-butenylamine hydrochloride]
10 | 196 to 197 | 14286 | – | 14290 | – | CS(=O)(=O)c1cccc(C/C=C(/F)CN)c1.Cl [II-14-E, (E)-2-Fluoro-4-(3-methanesulfonylphenyl)-2-butenylamine hydrochloride]
11 | 188 to 189 | >34780 | > 800 | >34780 | > 800 | Cl.NC/C(F)=C\Cc1cccc(SC(F)(F)F)c1 [II-15-E, (E)-2-Fluoro-4-(3-trifluoromethylthiophenyl)-2-butenylamine hydrochloride]

Row | SMILES | melting point [°C] | Specificity of SSAO on MAO-B (human MAO-B) | IC50 (human MAO-B) [µM] | Specificity of SSAO on MAO-A (Recombinant human MAO-A) | IC50 (Recombinant human MAO-A) [µM]
12 | CCCCOc1ccc(CC/C(=C\Cl)CN)cc1.Cl [Compound I-47-E, (E)-3-Chloro-2-(4-n-butoxyphenylethyl)allylamine hydrochloride] | 132 to 133 | 2.5 | 0.42 | 794 | 135
13 | NC/C(=C\F)CCc1cc(F)cc(C(F)(F)F)c1.O=C(O)C(F)(F)F [Compound I-109-Z, (Z)-3-Fluoro-2-(3-fluoro-5-trifluoromethylphenylethyl)allylamine trifluoroacetate] | 56 to 57 | 5.9 | 1.6 | 78 | 21
